According to patent US20250346564A1 (ARase Therapeutics Inc., priority 2022, published 2025):

Legend:
PARG [1] = biological target: T1, PARG (Homo sapiens (Human), UniProt Q86W56); assay: PARG target engagement cellular assay (PAR polymer immunostaining after cisplatin); assay type: cell-based; settings: HCC1806 cells treated with cisplatin, then compound titration for 1 h; PAR polymer antibody readout
Experimental: Example a. Inhibition of PARG Target Engagement Cellular Assay
The ability of the compounds of the Examples to inhibit PARG was determined as described below. After treating HCC1806 cells with cisplatin, followed by PARG inhibitor compound titration for 1 h, the cells were fixed in formaldehyde. The cells were permeabilized, blocked, and incubated with antibody against poly (ADP) ribose (PAR) polymer. The cells were then washed and incubated with IR 800 conjugated secondary antibody together with TO-PRO3 iodide nuclear stain. After washing, images of the cells were captured and analyzed on Odyssey CLx instrument and analyzed using LI-COR image studio software.

PARG [2] = biological target: T1, PARG; assay: PARG TFMU assay (4-(trifluoromethyl)umbelliferone substrate); assay type: biochemical; settings: PARG 250 pM or 2 nM, 10-point dose response
Experimental: Example C. Inhibition of PARG TEMU Assay
The ability of the compounds of the Examples to inhibit PARG activity in 4. (trifluoromethyl)umbelliferone (TFMU) assay was determined as described below. PARG inhibitors were added into 384 well plate for a 10-point dose response curve at 1:3 dilutions. TFMU PARG substrate and PARG (250 pM or 2 nM) were then added to the plate to initiate enzymatic reaction. After incubation with the reagent, […] was read. IC50 values were calculated using set control points for 100% inhibition as no enzyme and 0% inhibition 250 pM or 2 nM of PARG enzyme.

T1 sequence (Q86W56 whole entry): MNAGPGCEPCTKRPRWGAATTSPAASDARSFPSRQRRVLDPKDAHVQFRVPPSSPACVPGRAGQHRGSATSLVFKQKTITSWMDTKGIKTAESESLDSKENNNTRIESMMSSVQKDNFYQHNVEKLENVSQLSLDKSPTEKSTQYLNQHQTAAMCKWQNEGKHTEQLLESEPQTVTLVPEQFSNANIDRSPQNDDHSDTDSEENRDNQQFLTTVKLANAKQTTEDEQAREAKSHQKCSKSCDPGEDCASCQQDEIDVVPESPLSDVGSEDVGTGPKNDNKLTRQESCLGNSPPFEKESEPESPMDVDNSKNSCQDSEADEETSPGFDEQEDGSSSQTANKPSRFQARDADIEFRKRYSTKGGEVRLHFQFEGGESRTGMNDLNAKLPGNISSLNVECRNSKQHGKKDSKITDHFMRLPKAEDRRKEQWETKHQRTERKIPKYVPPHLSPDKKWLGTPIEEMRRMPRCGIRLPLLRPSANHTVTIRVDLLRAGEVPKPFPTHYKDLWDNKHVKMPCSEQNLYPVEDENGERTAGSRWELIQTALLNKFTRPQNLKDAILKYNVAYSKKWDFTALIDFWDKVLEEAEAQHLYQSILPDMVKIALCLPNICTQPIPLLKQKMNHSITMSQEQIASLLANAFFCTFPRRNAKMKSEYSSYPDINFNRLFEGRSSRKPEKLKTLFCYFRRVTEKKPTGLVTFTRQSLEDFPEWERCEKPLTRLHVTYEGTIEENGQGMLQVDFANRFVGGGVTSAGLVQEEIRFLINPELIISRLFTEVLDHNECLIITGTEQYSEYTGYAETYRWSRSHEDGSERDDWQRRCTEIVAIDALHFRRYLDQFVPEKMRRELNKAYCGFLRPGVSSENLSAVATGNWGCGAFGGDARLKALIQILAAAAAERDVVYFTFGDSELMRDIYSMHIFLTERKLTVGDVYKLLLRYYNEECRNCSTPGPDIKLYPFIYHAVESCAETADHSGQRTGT

Row | IC50 (PARG [1]) [µM] | IC50 (PARG [2]) [nM] | SMILES
1 | > 100 | 500 to 5000 | COC(=O)/C=C/CCn1c(=O)[nH]c2ccc(S(=O)(=O)NC3(C)COC3)cc2c1=O [Example 12, methyl (E)-5-(6-(N-(3-methyloxetan-3-yl)sulfamoyl)-2,4-dioxo-1,4-dihydroquinazolin-3(2H)-yl)pent-2-enoate]
2 | > 100 | 500 to 5000 | CCn1c(=O)c2cc(S(=O)(=O)NC3(C(F)F)COC3)ccc2n(CC)c1=O [Example 18, N-(3-(difluoromethyl)oxetan-3-yl)-1,3-diethyl-2,4-dioxo-1,2,3,4-tetrahydroquinazoline-6-sulfonamide]
3 | > 100 | 500 to 5000 | CNC(=O)/C=C/Cn1c(=O)[nH]c2ccc(S(=O)(=O)NC3(C)COC3)cc2c1=O [Example 19, (E)-N-methyl-4-(6-(N-(3-methyloxetan-3-yl)sulfamoyl)-2,4-dioxo-1,4-dihydroquinazolin-3(2H)-yl) but-2-enamide]
4 | 10 to 100 | 50 to 500 | CCn1c(=O)c2cc(S(=O)(=O)NC3(CF)COC3)ccc2n(CC)c1=O [Example 20, 1,3-diethyl-N-(3-(fluoromethyl)oxetan-3-yl)-2,4-dioxo-1,2,3,4-tetrahydroquinazoline-6-sulfonamide]

Second part, the compound before the results:

Row | SMILES | IC50 (PARG [1]) [µM] | IC50 (PARG [2]) [nM]
5 | COC(=O)/C=C/Cn1c(=O)c2cc(S(=O)(=O)NC3(C)COC3)ccc2n(CC2COC2)c1=O [Example 11, methyl (2E)-4-{6-[(3-methyloxetan-3-yl)sulfamoyl]-1-(oxetan-3-ylmethyl)-2,4-dioxoquinazolin-3-yl}but-2-enoate] | < 10 | 500 to 5000
6 | Cc1ncc(Cn2c(=O)c3cc(S(=O)(=O)NC4(C)COC4)ccc3n(Cc3sc(C)nc3C)c2=O)s1 [Example 14, 1-((2,4-dimethylthiazol-5-yl)methyl)-N-(3-methyloxetan-3-yl)-3-((2-methylthiazol-5-yl)methyl)-2,4-dioxo-1,2,3,4-tetrahydroquinazoline-6-sulfonamide] | 10 to 100 | < 50
